Laboratory results as given in article PMC4639751, “Development of 1-N-^11C-Methyl-L- and -D-Tryptophan for pharmacokinetic imaging of the immune checkpoint inhibitor 1-Methyl-Tryptophan” (Scientific Reports, 2015).

Legend:
[1] = Ex vivo metabolite studies; type: in vivo; settings: SD rats; for Ex vivo metabolite analysis, % of tailored L- and D-1MTrp entity in Brain / Ex vivo metabolite analysis, % of tailored L- and D-1MTrp entity in Pancreas / Ex vivo metabolite analysis, % of tailored L- and D-1MTrp entity in Plasma: HPLC, mean ± SEM, n = 4
Procedure: To validate the derivation of radioactivity into the relevant organs and tissues, we assessed the metabolites of both radiolabelled isomers in the blood, brain, and pancreas of rats. […] Few radioactive metabolites were detected in these three tissues at 15 and 60 min after ^11C-L-1MTrp and ^11C-D-1MTrp injection.
SD rats were injected with ^11C-L-1MTrp or ^11C-D-1MTrp (70–74 MBq, 0.4–0.6 nmol) via a lateral tail vein. The animals were sacrificed by cervical dislocation at 15 and 60 min after the injection. Blood was collected and centrifuged at 15000 rpm for 2 min at 4 °C to separate the plasma. Brain and pancreas were rapidly removed, then homogenized in equal volumes of 1 M HClO4 solution with a Silent Crusher S homogenizer (Heidolph Instruments). Plasma and homogenates of brain and pancreas from rats were deproteinized and then analyzed by HPLC as described in the stability assay in vitro.

[2] = Ex vivo biodistribution studies; settings: SD rats; for Biodistribution, radioactivity in Blood / Biodistribution, radioactivity in Brain / Biodistribution, radioactivity in Heart / Biodistribution, radioactivity in Intestine / Biodistribution, radioactivity in Liver / Biodistribution, radioactivity in Lung / Biodistribution, radioactivity in Muscle / Biodistribution, radioactivity in Pancreas / Biodistribution, radioactivity in Spleen / Biodistribution, radioactivity in Kidney: mean ± SEM, n = 4
Text: Major organs and tissues (blood, heart, lung, liver, pancreas, spleen, kidney, intestine, muscle, and brain), were promptly excised, harvested, and weighed. Radioactivity was counted using a γ-counter and expressed as a percentage of the injected dose per gram of wet tissue (%ID/g). All radioactivity measurements were corrected for decay.

[3] = PET, rats; for SUV in the kidney: mean ± SEM, four rats
Procedure: Emission scans were acquired in three-dimensional list mode with an energy window of 350–650 keV under isoflurane anesthesia, from 0 to 60 min after radioprobe administration. All list-mode acquisition data were sorted into three-dimensional sinograms, which were then Fourier-rebinned into two-dimensional sonograms (frames × min: 4 × 1, 8 × 2, 8 × 5), and corrections for scanner dead time, randoms, and decay of the injected radioprobe. Dynamic images were reconstructed with filtered back-projection using a Hanning filter and a Nyquist cut-off of 0.5 cycles/pixel. Immediately after completion of PET scans, contrast-enhanced CT scans were performed in the rats by using the small-animal CT system (R_mCT2; Rigaku, Tokyo) after injection of 1 mL of non-ionic contrast medium (Iopamiron 370, Bayer, Osaka). The scan conditions included radiation parameters of 200 μA and 90 kV, FOV of 60 mm, and acquisition time of 34 s. CT images were collected, reconstructed, and observed using I-View-R software (Rigaku, The Woodlands, TX). Averaged CT attenuation images and dynamic PET images were reconstructed and fused using the Siemens Inveon Research Workplace (IRW) 4.0 software.
Regions of interest (ROI) in major organs and tissues were drawn in the PET/CT fusion images by manual outlining the organs and tissues in the CT images throughout the image slices by using IRW 4.0 software. The average radioactivity concentration was obtained from mean pixel values in the ROI volume. Regional uptake of radioactivity was decay-corrected to the injection time and expressed as the standardized uptake value (SUV), normalized for injected radioactivity and body weight. SUV was calculated as SUV = (radioactivity per cubic centimeter tissue/injected radioactivity) × body weight in grams. TACs of the radioprobes in individual organ and tissue were determined. Values of area under time-activity curves (AUC2–60 min, SUV × min) were calculated from 2 to 60 min post-injection to minimize the early perfusion effects.

[4] = In vitro stability assay in rat plasma; type: in vitro ADME; settings: 37 °C, 90 min incubation, HPLC analysis
Procedure: To determine the in vitro property of the two newly-developed radioprobes, we performed plasma stability studies by HPLC analysis at 37 °C for 90 min. […] More than 95% of ^11C-L-1Mtrp and ^11C-D-1Mtrp remained intact and no detectable metabolites were found at least 90 min after plasma incubation in vitro.
^11C-L-1MTrp and ^11C-D-1MTrp (70–74 MBq, 0.4−0.6 nmol) was dissolved in 2 mL of freshly isolated rat plasma and incubated at 37 °C for 90 min. After 0, 30, 60 and 90 min, an aliquot of 300 μL incubated mixture was taken, proteins in plasma were precipitated with equal volumes of 1 M HClO4 solution, followed by centrifugation at 15000 rpm for 2 min at 4 °C. The supernatant was collected and analyzed by HPLC (Capcell Pack UG80 column, 4.6 mm i.d. × 250 mm) with […] phosphate buffer/CH3CN (8.5/1.5, v/v) at a flow rate of 1 mL/min.

[5] = set-up: method as in PMID 17234791; settings: compared with the other isomer; cited from earlier work

Q: For `[11CH3]n1cc(C[C@@H](N)C(=O)O)c2ccccc21` [^11C-D-1MTrp, 1-N-^11C-methyl-D-tryptophan], which “Radioactivity in the brain, pancreas, and blood associated with L- and D-1MTrp” value ([1]; 15 and 60 min after injection) is on record?
A: more than 94%

Q: What about the “Ex vivo metabolite analysis, % of tailored L- and D-1MTrp entity in Brain” value ([1]; 15 min after injection) of the same compound?
A: 95.06 ± 0.38%

Q: What about the “Ex vivo metabolite analysis, % of tailored L- and D-1MTrp entity in Pancreas” value ([1]; 15 min after injection) of the same compound?
A: 94.08 ± 0.51%

Q: And the “Ex vivo metabolite analysis, % of tailored L- and D-1MTrp entity in Plasma” value ([1]; 15 min after injection)?
A: 94.45 ± 0.03%

Q: What about the “Ex vivo metabolite analysis, % of tailored L- and D-1MTrp entity in Brain” value ([1]; 60 min after injection) of the same compound?
A: 98.16 ± 0.47%

Q: And the “Ex vivo metabolite analysis, % of tailored L- and D-1MTrp entity in Pancreas” value ([1]; 60 min after injection)?
A: 96.31 ± 0.48%

Q: And the “Ex vivo metabolite analysis, % of tailored L- and D-1MTrp entity in Plasma” value ([1]; 60 min after injection)?
A: 98.81 ± 0.25%

Q: And the “Biodistribution, radioactivity in Blood” value ([2]; 1 min after injection)?
A: 1.47 ± 0.02 %ID/g tissue

Q: And the “Biodistribution, radioactivity in Brain” value ([2]; 1 min after injection)?
A: 0.04 ± 0.00 %ID/g tissue

Q: And the “Biodistribution, radioactivity in Heart” value ([2]; 1 min after injection)?
A: 0.58 ± 0.02 %ID/g tissue

Q: What about the “Biodistribution, radioactivity in Intestine” value (shortened to “Biodistribution … in Intestine”) ([2]; 1 min after injection) of the same compound?
A: 0.93 ± 0.02 %ID/g tissue

Q: And the “Biodistribution, radioactivity in Liver” value ([2]; 1 min after injection)?
A: 1.24 ± 0.03 %ID/g tissue

Q: And the “Biodistribution, radioactivity in Lung” value ([2]; 1 min after injection)?
A: 0.79 ± 0.03 %ID/g tissue

Q: And the “Biodistribution, radioactivity in Muscle” value ([2]; 1 min after injection)?
A: 0.12 ± 0.00 %ID/g tissue

Q: What about the “Biodistribution, radioactivity in Pancreas” value (from here on “Biodistribution … in Pancreas”) ([2]; 1 min after injection) of the same compound?
A: 0.76 ± 0.07 %ID/g tissue

Q: And the “Biodistribution, radioactivity in Spleen” value ([2]; 1 min after injection)?
A: 0.62 ± 0.02 %ID/g tissue

Q: What about the “Biodistribution, radioactivity in Blood” value ([2]; 5 min after injection) of the same compound?
A: 0.79 ± 0.03 %ID/g tissue

Q: What about the “Biodistribution, radioactivity in Brain” value ([2]; 5 min after injection) of the same compound?
A: 0.05 ± 0.01 %ID/g tissue

Q: What about the “Biodistribution, radioactivity in Heart” value ([2]; 5 min after injection) of the same compound?
A: 0.55 ± 0.02 %ID/g tissue

Q: What about the “Biodistribution … in Intestine” value ([2]; 5 min after injection) of the same compound?
A: 0.68 ± 0.02 %ID/g tissue

Q: And the “Biodistribution, radioactivity in Liver” value ([2]; 5 min after injection)?
A: 0.97 ± 0.02 %ID/g tissue

Q: And the “Biodistribution, radioactivity in Lung” value ([2]; 5 min after injection)?
A: 0.60 ± 0.02 %ID/g tissue

Q: And the “Biodistribution, radioactivity in Muscle” value ([2]; 5 min after injection)?
A: 0.26 ± 0.01 %ID/g tissue

Q: What about the “Biodistribution … in Pancreas” value ([2]; 5 min after injection) of the same compound?
A: 1.03 ± 0.15 %ID/g tissue

Q: What about the “Biodistribution, radioactivity in Spleen” value ([2]; 5 min after injection) of the same compound?
A: 0.51 ± 0.02 %ID/g tissue

Q: And the “Biodistribution, radioactivity in Blood” value ([2]; 15 min after injection)?
A: 0.49 ± 0.01 %ID/g tissue

Q: What about the “Biodistribution, radioactivity in Brain” value ([2]; 15 min after injection) of the same compound?
A: 0.08 ± 0.00 %ID/g tissue

Q: And the “Biodistribution, radioactivity in Heart” value ([2]; 15 min after injection)?
A: 0.52 ± 0.02 %ID/g tissue

Q: And the “Biodistribution … in Intestine” value ([2]; 15 min after injection)?
A: 0.53 ± 0.00 %ID/g tissue

Q: What about the “Biodistribution, radioactivity in Kidney” value ([2]; 15 min after injection) of the same compound?
A: 3.66 ± 0.15 %ID/g tissue

Q: And the “Biodistribution, radioactivity in Liver” value ([2]; 15 min after injection)?
A: 0.64 ± 0.01 %ID/g tissue

Q: What about the “Biodistribution, radioactivity in Lung” value ([2]; 15 min after injection) of the same compound?
A: 0.46 ± 0.02 %ID/g tissue

Q: And the “Biodistribution, radioactivity in Muscle” value ([2]; 15 min after injection)?
A: 0.35 ± 0.01 %ID/g tissue

Q: And the “Biodistribution … in Pancreas” value ([2]; 15 min after injection)?
A: 1.01 ± 0.06 %ID/g tissue

Q: And the “Biodistribution, radioactivity in Spleen” value ([2]; 15 min after injection)?
A: 0.48 ± 0.01 %ID/g tissue

Q: What about the “Biodistribution, radioactivity in Blood” value ([2]; 30 min after injection) of the same compound?
A: 0.40 ± 0.01 %ID/g tissue

Q: And the “Biodistribution, radioactivity in Brain” value ([2]; 30 min after injection)?
A: 0.11 ± 0.00 %ID/g tissue

Q: What about the “Biodistribution, radioactivity in Heart” value ([2]; 30 min after injection) of the same compound?
A: 0.42 ± 0.02 %ID/g tissue

Q: And the “Biodistribution … in Intestine” value ([2]; 30 min after injection)?
A: 0.40 ± 0.01 %ID/g tissue

Q: And the “Biodistribution, radioactivity in Kidney” value ([2]; 30 min after injection)?
A: 2.12 ± 0.16 %ID/g tissue

Q: What about the “Biodistribution, radioactivity in Liver” value ([2]; 30 min after injection) of the same compound?
A: 0.47 ± 0.01 %ID/g tissue

Q: And the “Biodistribution, radioactivity in Lung” value ([2]; 30 min after injection)?
A: 0.37 ± 0.01 %ID/g tissue

Q: And the “Biodistribution, radioactivity in Muscle” value ([2]; 30 min after injection)?
A: 0.38 ± 0.03 %ID/g tissue

Q: And the “Biodistribution … in Pancreas” value ([2]; 30 min after injection)?
A: 1.21 ± 0.05 %ID/g tissue

Q: And the “Biodistribution, radioactivity in Spleen” value ([2]; 30 min after injection)?
A: 0.40 ± 0.02 %ID/g tissue

Q: What about the “Biodistribution, radioactivity in Blood” value ([2]; 60 min after injection) of the same compound?
A: 0.32 ± 0.01 %ID/g tissue

Q: What about the “Biodistribution, radioactivity in Brain” value ([2]; 60 min after injection) of the same compound?
A: 0.15 ± 0.01 %ID/g tissue

Q: What about the “Biodistribution, radioactivity in Heart” value ([2]; 60 min after injection) of the same compound?
A: 0.30 ± 0.01 %ID/g tissue

Q: What about the “Biodistribution … in Intestine” value ([2]; 60 min after injection) of the same compound?
A: 0.32 ± 0.01 %ID/g tissue

Q: What about the “Biodistribution, radioactivity in Kidney” value ([2]; 60 min after injection) of the same compound?
A: 1.16 ± 0.03 %ID/g tissue

Q: And the “Biodistribution, radioactivity in Liver” value ([2]; 60 min after injection)?
A: 0.37 ± 0.01 %ID/g tissue

Q: And the “Biodistribution, radioactivity in Lung” value ([2]; 60 min after injection)?
A: 0.28 ± 0.01 %ID/g tissue

Q: What about the “Biodistribution, radioactivity in Muscle” value ([2]; 60 min after injection) of the same compound?
A: 0.33 ± 0.01 %ID/g tissue

Q: What about the “Biodistribution … in Pancreas” value ([2]; 60 min after injection) of the same compound?
A: 1.03 ± 0.06 %ID/g tissue

Q: What about the “Biodistribution, radioactivity in Spleen” value ([2]; 60 min after injection) of the same compound?
A: 0.32 ± 0.01 %ID/g tissue

Q: And the “Measured uptake in organs other than kidneys and pancreas” value ([2]; 60 min after radioprobe injection, span over organs)?
A: 0.15−0.37 % ID/g

Q: And the “SUV in the kidney” value ([3]; 60 min after injection)?
A: 1.79 ± 0.07

Q: What about the “SUV in the other organs (other than kidneys)” value ([3]; 60 min after injection, span over organs) of the same compound?
A: 0.20−0.61

Q: What about the “Maximum accumulation (SUV) in the kidneys” value ([3]; within 5 min after administration) of the same compound?
A: 6.03 ± 0.43

Q: What about the “Fraction remaining intact in rat plasma” value [4] of the same compound?
A: More than 95%

Q: Which results are given for `Cn1cc(C[C@@H](N)C(=O)O)c2ccccc21` [D-1MTrp, 1-Methyl-D-tryptophan, reference compound]?
A: Biodistribution, radioactivity in Kidney ([2]; 60 min after injection): 1.16 %ID/g tissue; SUV in the kidney ([3]; 60 min after injection): 1.79; Antitumor activity in in vivo studies [5]: superior antitumor activity
